Source: PubChem BioAssay AID2060504 (Molecular Pharmacology Branch, DTP, NCI, 2025)
pIC50: −log10 of the molar value.

System: 636577-100-R-J1-PDC complex spheroid viability
Test: Anticancer human tumor 636577-100-R-J1-PDC patient-derived endometrial adenocarcinoma cell line growth inhibition [GQUAD]
Settings: for pIC50: curve of first compound; for viability, T/C: stronger effect = lower value
Procedure, shortened: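 Multi-cell-type spheroids of tumor cells with HUVEC and mesenchymal stem cells, treated with drug combinations. Concentrations descend in half-log steps from near clinical Cmax, or from 10 microM where Cmax is unknown; viability read-out.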

[1] = second compound 0.0316 µM, first compound 0.0316 µM
[2] = second compound 0.0316 µM, first compound 0.1 µM
[3] = second compound 0.0316 µM, first compound 0.316 µM
[4] = second compound 0.0316 µM, first compound 1 µM
[5] = second compound 0.0316 µM, first compound 3.16 µM
[6] = second compound 0.0316 µM, first compound 10 µM
[7] = second compound 0.1 µM, first compound 0.0316 µM
[8] = second compound 0.1 µM, first compound 0.1 µM
[9] = second compound 0.1 µM, first compound 0.316 µM
[10] = second compound 0.1 µM, first compound 1 µM
[11] = second compound 0.1 µM, first compound 3.16 µM
[12] = second compound 0.1 µM, first compound 10 µM
[13] = second compound 0.316 µM, first compound 0.0316 µM
[14] = second compound 0.316 µM, first compound 0.1 µM
[15] = second compound 0.316 µM, first compound 0.316 µM
[16] = second compound 0.316 µM, first compound 1 µM
[17] = second compound 0.316 µM, first compound 3.16 µM
[18] = second compound 0.316 µM, first compound 10 µM
[19] = second compound 1 µM, first compound 0.0316 µM
[20] = second compound 1 µM, first compound 0.1 µM
[21] = second compound 1 µM, first compound 0.316 µM
[22] = second compound 1 µM, first compound 1 µM
[23] = second compound 1 µM, first compound 3.16 µM
[24] = second compound 1 µM, first compound 10 µM
[25] = second compound 3.16 µM, first compound 0.0316 µM
[26] = second compound 3.16 µM, first compound 0.1 µM
[27] = second compound 3.16 µM, first compound 0.316 µM
[28] = second compound 3.16 µM, first compound 1 µM
[29] = second compound 3.16 µM, first compound 3.16 µM
[30] = second compound 3.16 µM, first compound 10 µM
[31] = second compound 10 µM, first compound 0.0316 µM
[32] = second compound 10 µM, first compound 0.1 µM
[33] = second compound 10 µM, first compound 0.316 µM
[34] = second compound 10 µM, first compound 1 µM
[35] = second compound 10 µM, first compound 3.16 µM
[36] = second compound 10 µM, first compound 10 µM
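Further: viability read after seven days of drug exposure.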
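Wherever viability, T/C is given: luminescence signal used as a proxy for viable cells; 100% = DMSO vehicle control wells.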

SMILES: CC1COCCN1c1cc(C2(S(C)(=N)=O)CC2)nc(-c2ccnc3[nH]ccc23)n1 (centres undefined) + CN(C)c1ccc(Nc2c3ccc(NC(=O)CCN4CCCC4)cc3nc3cc(NC(=O)CCN4CCCC4)ccc23)cc1
- pIC50 (second compound 0.0316 µM): 5.98
- pIC50 (second compound 0.1 µM): 6.03
- pIC50 (second compound 0.316 µM): 6.33
- pIC50 (second compound 1 µM): 6.20
- pIC50 (second compound 3.16 µM): > 7.50
- pIC50 (second compound 10 µM): > 7.50
- viability, T/C [1]: 91.4%
- viability, T/C [2]: 74.6%
- viability, T/C [3]: 89.4%
- viability, T/C [4]: 51.2%
- viability, T/C [5]: 21.4%
- viability, T/C [6]: 14%
- viability, T/C [7]: 78.4%
- viability, T/C [8]: 71.3%
- viability, T/C [9]: 89.4%
- viability, T/C [10]: 48.1%
- viability, T/C [11]: 22.4%
- viability, T/C [12]: 14.6%
- viability, T/C [13]: 75.7%
- viability, T/C [14]: 67.3%
- viability, T/C [15]: 54.2%
- viability, T/C [16]: 41.2%
- viability, T/C [17]: 24.4%
- viability, T/C [18]: 14.1%
- viability, T/C [19]: 42.9%
- viability, T/C [20]: 80.2%
- viability, T/C [21]: 65%
- viability, T/C [22]: 41.2%
- viability, T/C [23]: 23.6%
- viability, T/C [24]: 16%
- viability, T/C [25]: 34.6%
- viability, T/C [26]: 45.8%
- viability, T/C [27]: 34%
- viability, T/C [28]: 29.5%
- viability, T/C [29]: 18.3%
- viability, T/C [30]: 13.2%
- viability, T/C [31]: 6.13%
- viability, T/C [32]: 5.83%
- viability, T/C [33]: 5.26%
- viability, T/C [34]: 5.47%
- viability, T/C [35]: 3.58%
- viability, T/C [36]: 1.72%

SMILES: O=C(c1cc(Cc2n[nH]c(=O)c3ccccc23)ccc1F)N1CCN(C(=O)C2CC2)CC1 + CN(C)c1ccc(Nc2c3ccc(NC(=O)CCN4CCCC4)cc3nc3cc(NC(=O)CCN4CCCC4)ccc23)cc1
- pIC50 (second compound 0.0316 µM): 5.80
- pIC50 (second compound 0.1 µM): 5.84
- pIC50 (second compound 0.316 µM): 5.43
- pIC50 (second compound 1 µM): 5.87
- pIC50 (second compound 3.16 µM): > 7.50
- pIC50 (second compound 10 µM): > 7.50
- viability, T/C [1]: 93.1%
- viability, T/C [2]: 54.9%
- viability, T/C [3]: 71%
- viability, T/C [4]: 63.8%
- viability, T/C [5]: 37.7%
- viability, T/C [6]: 33.2%
- viability, T/C [7]: 69.7%
- viability, T/C [8]: 54.2%
- viability, T/C [9]: 52.1%
- viability, T/C [10]: 57.7%
- viability, T/C [11]: 46.2%
- viability, T/C [12]: 31.7%
- viability, T/C [13]: 50.3%
- viability, T/C [14]: 53.6%
- viability, T/C [15]: 64.3%
- viability, T/C [16]: 61.5%
- viability, T/C [17]: 50.1%
- viability, T/C [18]: 34.1%
- viability, T/C [19]: 63.7%
- viability, T/C [20]: 62.4%
- viability, T/C [21]: 60.5%
- viability, T/C [22]: 54.3%
- viability, T/C [23]: 38.9%
- viability, T/C [24]: 28.8%
- viability, T/C [25]: 29.2%
- viability, T/C [26]: 40.2%
- viability, T/C [27]: 34.2%
- viability, T/C [28]: 30.8%
- viability, T/C [29]: 25.6%
- viability, T/C [30]: 21.1%
- viability, T/C [31]: 5.92%
- viability, T/C [32]: 4.61%
- viability, T/C [33]: 4.06%
- viability, T/C [34]: 5.25%
- viability, T/C [35]: 6.06%
- viability, T/C [36]: 4.36%
